Results: patent US20200163342A1, “MIXTURES COMPRISING A BIOPESTICIDE AND A NITRIFICATION INHIBITOR” (BASF SE, priority 2017, published 2020)
Bridge positions count the residues as written; N and C are the ends. Square brackets hold non-standard residues; d marks the D form. Peptide text beside a SMILES is read from it. * marks the point of attachment. ξ: configuration not given here. Pentadecanoyl(3ξ-OH,15-Gua) = N=C(N)NCCCCCCCCCCCCC(O)CC(=O)*; d(aThr) = C[C@@H](O)[C@@H](N)C(=O)O; Thr(3ξ) = CC(O)[C@H](N)C(=O)O; ξY = NC(Cc1ccc(O)cc1)C(=O)O

What was measured:
[1] = test system: Fusarium oxysporum, Aspergillus niger, Aspergillus oryzae, and Penicillum thomii; conditions: J. Antibiotics 49(2), 129-135, 1996; 50(3), 220-228, 1997; cited from earlier work
cultured parsley cells = conditions: WO2006/016558; EP1 788 074 A1; cited from earlier work
Fusarium oxysporum = conditions: WO2006/016558; EP1 788 074 A1; cited from earlier work
[2] = test system: Fusarium moniliforme, F. oxysporum, F. roseum, Giberella fujkuroi, Helminthosporium sesamum and Penicillium expansum; conditions: J. Antibiotics 40(11), 1506-1514, 1987; cited from earlier work
[3] = test system: clinically relevant fungi and gram-positive bacteria such a Staphylococcus aureus; conditions: variety of clinically relevant fungi and gram-positive bacteria; ChemMedChem 7, 871-882, 2012; cited from earlier work
N2O emissions from soils = experiment: Greenhouse detection of nitrous oxide losses (N2O emission), soybean pots; assay type: in vivo, Glycine max 'Sultana'; conditions: DMPSA 1% of NH4-N where present
Method: (§1) Plants were generally grown under standard green house conditions (20° C. and 60% humidity) using standard greenhouse soil (mixture of peat, loam and sand). Therefore, 0.4 g of ryegrass seeds (Lolium perennes ‘Chagall’), 1 soybean seed (Glycine max ‘Sultana’) or 1 grape vine live stack (Vitis vinifer ssp. ‘Sativa’) were grown per pot (8.4 cm for ryegrass, soybean; 13 cm for grape vine) in a completely randomized set-up. Following a growth period of ten days (ryegrass), 14 days (soybean) or approx. 21 days, until the main shoot reached a length of 20 cm (grape vine), plants were designated for experimental usage.
On application day (DATO), each pot (with/without plants) was set onto a plant saucer designed with an inner compartment for the pot and an outer ring that is filled with water. At time 0, water holding capacity of the soil was set to 60-70% prior to application with/without fertilizer and active ingredient. Subsequently, a gas sampling chamber was placed over the plant saucer such that the rim fit into the ring filled with water to create a gas-tight chamber and 25 cc air from the chamber were drawn into a syringe and immediately emptied in to a Vacutainer (Labco, 12 ml volume). This equals the Time 0 measurement for each pot. The same procedure was performed with all pots in the experiment. After two hour incubation time, again 25 cc air samples were taken from the gas chambers and emptied into Vacutainers as described above. Plants were then returned to their positions in the climate chamber. The procedure was repeated at precisely the same time of day for up to 19 days.
Samples were analyzed in a Shimadzu 2014 GC equipped with an ECD system.
(§2) In Table N1, the weight ratio between DMPSA and Histick Super is 3.65:1, the weight ratio between DMPSA and Hicoat is 10.43:1.

[4] = test system: grape vine (Vitis vinifer ssp. 'Sativa'); experiment: Greenhouse shoot elongation, grape vine; assay type: in vivo; conditions: grape vine main shoot elongation, 17 days after start; DMPSA 1% of NH4-N, VitoVin 12481 g/ha
Method: as §1
For experiments using grape vine, elongation of the main shoot was measured metrically 17 days after experimental start.
In Table N2, the weight ratio between DMPSA and VitoVin is 1:5.6.

[5] = test system: soybean (Glycine max 'Sultana'); experiment: Greenhouse detection of plant biomass (fresh weight), soybean; assay type: in vivo; conditions: 17 days after start, with AS liquid, DMPSA 1% of NH4-N where present
Method: as §1
Detection of ryegrass and soybean biomass (fresh weight) was determined gravitometricallly. Therefore, plants were cut using a hand held lawn cutter (ryegrass) or garden shears (soybean) 1 cm above the soil. Given ryegrass data represent the mean value of respective replicates summed up for 3 cuttings. For experiments using ryegrass, evaluations were conducted 5, 12 and 17 days after start of the experiment. For experiments using soybean, biomass evaluation was conducted 17 days after experimental start.
as §2

For CC1OC(=O)[C@@H](C)NC(=O)[C@@H](CC(N)=O)NC(=O)[C@@H]([C@H](C)O)NC(=O)C(Cc2ccc(O)cc2)NC(=O)[C@@H](C(C)C)NC(=O)[C@H]1NC(=O)CC(O)CCCCCCCCCCCCN=C(N)N (stereo partly drawn) [fusaricidin C] ({Pentadecanoyl(3ξ-OH,15-Gua)}-[Thr(3ξ)][dV][ξY][dT][dN][dA]; ester 1-C), the “inhibition of plant pathogenic fungi” value [1] is listed as “inhibit plant pathogenic fungi”.
For CC(C)[C@@H]1NC(=O)[C@@H](C(C)C)NC(=O)[C@@H](NC(=O)CC(O)CCCCCCCCCCCCN=C(N)N)C(C)OC(=O)[C@@H](C)NC(=O)[C@@H](CCC(N)=O)NC(=O)[C@@H]([C@H](C)O)NC1=O (stereo in doubt) [fusaricidin B], the “induction of resistance reactions in cultured parsley cells” value (cultured parsley cells) is listed as “induce resistance reactions”, the “inhibition of plant pathogenic fungi” value [1] is listed as “inhibit plant pathogenic fungi” and the “inhibition of growth of Fusarium oxysporum” value (Fusarium oxysporum) is listed as “inhibit growth”.
For fusaricidin LI-F05, the “antifungal activity against various plant pathogenic fungi” value (from here on “antifungal activity”) [2] is given as “certain antifungal activity”.
In the case of CC1OC(=O)[C@@H](C)NC(=O)[C@@H](CCC(N)=O)NC(=O)[C@@H]([C@H](C)O)NC(=O)C(Cc2ccc(O)cc2)NC(=O)[C@@H](C(C)C)NC(=O)[C@H]1NC(=O)CC(O)CCCCCCCCCCCCN=C(N)N (stereo partly drawn) [fusaricidin D] ({Pentadecanoyl(3ξ-OH,15-Gua)}-[Thr(3ξ)][dV][ξY][dT][dQ][dA]; ester 1-C), the “inhibition of plant pathogenic fungi” value [1] is given as “inhibit plant pathogenic fungi”.
In the case of fusaricidin LI-F07, the “antifungal activity” value [2] is given as “certain antifungal activity”.
In the case of fusaricidin LI-F08, the “antifungal activity” value [2] is given as “certain antifungal activity”.
For CC(C)[C@@H]1NC(=O)[C@@H](C(C)C)NC(=O)[C@@H](NC(=O)CC(O)CCCCCCCCCCCCN=C(N)N)[C@@H](C)OC(=O)[C@@H](C)NC(=O)[C@@H](CC(N)=O)NC(=O)[C@@H]([C@@H](C)O)NC1=O (stereo partly drawn) [fusaricidin A] ({Pentadecanoyl(3ξ-OH,15-Gua)}-T[dV]V[d(aThr)][dN][dA]; ester 1-C), the “induction of resistance reactions in cultured parsley cells” value (cultured parsley cells) is given as “induce resistance reactions”, the MIC value range [3] is given as 0.78 to 3.12 µg/mL and the “inhibition of plant pathogenic fungi” value [1] is given as “inhibit plant pathogenic fungi”. The “inhibition of growth of Fusarium oxysporum” value (Fusarium oxysporum) was “inhibit growth”.
For “2-(3,4-dimethyl-1H-pyrazol-1-yl)succinic acid (DMPSA1) and/or 2-(4,5-dimethyl-1H-pyrazol-1-yl)succinic acid (DMPSA2)”, the N2O emission ppb (N2O emissions from soils; with AS liquid (ammonium sulfate, 219000 g/ha NH4-N)) was 38 ppb, the “N2O emission ppb net emission” value (N2O emissions from soils; with AS liquid) was 38 ppb and the “% inhibition (N2O emission)” value (N2O emissions from soils; with AS liquid, relative to soybean untreated + AS liquid) was 19%. The “relative Growth increase [% of control]” value [4] was 104 % of control, the “Biomass increase [% of fertilized control]” value [5] was 83 % of fertilized control and the “net Biomass increase” value [5] was -2.47 g.
